Data reported in the supplement of paper PMC10307832.

What was measured:
Test in all cases: relative viability (nuclei count vs DMSO), 5 days (fraction); higher = more cells survive
Zosuquidar + Pemetrexed = compound: O[C@@H](COc1cccc2ncccc12)CN1CCN([C@@H]2c3ccccc3[C@@H]3[C@H](c4ccccc42)C3(F)F)CC1 [Zosuquidar] + Nc1nc2[nH]cc(CCc3ccc(C(=O)N[C@@H](CCC(=O)O)C(=O)O)cc3)c2c(=O)[nH]1 [Pemetrexed] (partner 0.2 µM)
Method in brief: (§1)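 Relative viability was taken as the ratio of nuclei in treated wells to nuclei in vehicle wells. Lung cancer cell lines in 1536-well plates received compounds by pin tool one day after seeding, either one drug alone or a fixed anchor-drug dose plus five library-drug doses (not always all listed) in √10 steps. Nuclei were counted on 4× images after 5 days of treatment, and values are medians of duplicate plates.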

Kobe2602 + Crizotinib = compound: C1=CC(=CC=C1NC(=S)NNC2=C(C=C(C=C2[N+](=O)[O-])C(F)(F)F)[N+](=O)[O-])F [Kobe2602] + C[C@@H](Oc1cc(-c2cnn(C3CCNCC3)c2)cnc1N)c1c(Cl)ccc(F)c1Cl [Crizotinib] (partner 1 µM)
Method in brief: as §1

Zosuquidar + OSI-027 = compound: O[C@@H](COc1cccc2ncccc12)CN1CCN([C@@H]2c3ccccc3[C@@H]3[C@H](c4ccccc42)C3(F)F)CC1 [Zosuquidar] + COc1cccc2cc(-c3nc([C@H]4CC[C@H](C(=O)O)CC4)n4ncnc(N)c34)[nH]c12 [OSI-027] (partner 0.5 µM)
Method in brief: as §1

Zosuquidar + Palbociclib = compound: O[C@@H](COc1cccc2ncccc12)CN1CCN([C@@H]2c3ccccc3[C@@H]3[C@H](c4ccccc42)C3(F)F)CC1 [Zosuquidar] + CC(=O)c1c(C)c2cnc(Nc3ccc(N4CCNCC4)cn3)nc2n(C2CCCC2)c1=O [Palbociclib] (partner 0.5 µM)
Method in brief: as §1

**Q.** UMC-11 was tested. Which relative viability (Zosuquidar + Pemetrexed; first compound 0.01 µM) did it give?
**A.** 0.739

**Q.** And the relative viability (Zosuquidar + Pemetrexed; first compound 0.03162 µM)?
**A.** 0.739

**Q.** And the relative viability (Zosuquidar + Pemetrexed; first compound 0.1 µM)?
**A.** 0.894

**Q.** And the relative viability (Zosuquidar + Pemetrexed; first compound 0.3162 µM)?
**A.** 0.858

**Q.** And the relative viability (Zosuquidar + Pemetrexed; first compound 1 µM)?
**A.** 0.86

**Q.** What about the relative viability (Kobe2602 + Crizotinib; first compound 0.2 µM) of the same cell line?
**A.** 0.578

**Q.** And the relative viability (Kobe2602 + Crizotinib; first compound 0.6325 µM)?
**A.** 0.545

**Q.** And the relative viability (Kobe2602 + Crizotinib; first compound 2 µM)?
**A.** 0.672

**Q.** What about the relative viability (Kobe2602 + Crizotinib; first compound 6.325 µM) of the same cell line?
**A.** 0.619

**Q.** And the relative viability (Kobe2602 + Crizotinib; first compound 20 µM)?
**A.** 0.639

**Q.** What about the relative viability (Zosuquidar + OSI-027; first compound 0.01 µM) of the same cell line?
**A.** 0.439

**Q.** And the relative viability (Zosuquidar + OSI-027; first compound 0.03162 µM)?
**A.** 0.511

**Q.** What about the relative viability (Zosuquidar + OSI-027; first compound 0.1 µM) of the same cell line?
**A.** 0.462

**Q.** And the relative viability (Zosuquidar + OSI-027; first compound 0.3162 µM)?
**A.** 0.483

**Q.** And the relative viability (Zosuquidar + OSI-027; first compound 1 µM)?
**A.** 0.501

**Q.** What about the relative viability (Zosuquidar + Palbociclib; first compound 0.01 µM) of the same cell line?
**A.** 0.313

**Q.** And the relative viability (Zosuquidar + Palbociclib; first compound 0.03162 µM)?
**A.** 0.305

**Q.** And the relative viability (Zosuquidar + Palbociclib; first compound 0.1 µM)?
**A.** 0.338

**Q.** What about the relative viability (Zosuquidar + Palbociclib; first compound 0.3162 µM) of the same cell line?
**A.** 0.341

**Q.** What about the relative viability (Zosuquidar + Palbociclib; first compound 1 µM) of the same cell line?
**A.** 0.296
